Data as given in patent CN101260112A, “含噻吩并[3.2-c]吡啶的乙酰肼衍生物及其制备方法和用途” (Tianjin Institute of Pharmaceutical Research Co Ltd, priority 2008, dated 2008).

Tested on: ADP-induced platelet aggregation (ADP诱导的血小板聚集)
Assay: Effect of compounds of formula I on ADP-induced platelet aggregation (rats dosed orally, turbidimetric method)
Type: in vivo
Settings: male Wistar rat, 10 mg/kg oral gavage, blood taken 2 h after dosing, inducer ADP (final concentration 5 μM), turbidimetry, 37℃; for inhibition at 10 mg/kg: Platelet, vs control, read-out: inhibition rate; for maximum aggregation: control 54.8±5.8

SMILES | inhibition at 10 mg/kg [%] | maximum aggregation
CCCCc1nc(Cl)c(C=NNC(=O)C(c2cccc(Cl)c2)N2CCc3sccc3C2)[nH]1 (stereo not drawn) [化合物10, α,α-[(3-氯苯基)-(4,5,6,7-四氢噻吩并[3,2-c]吡啶-5-基)]-N′-[[(2-正丁基-4-氯-咪唑-5-基)甲叉基]乙酰肼] | 39 | 42.9±12.6
O=C(NN=Cc1cccc([N+](=O)[O-])c1)C(c1ccc(Cl)c(Cl)c1)N1CCc2sccc2C1 (stereo not drawn) [化合物7, α,α-[(3,4-二氯苯基)-(4,5,6,7-四氢噻吩并[3,2-c]吡啶-5-基)]-N′-[(3-硝基苯基)甲叉基]乙酰肼] | 23.3 | 36.0±9.3
O=C(NN=C1CCCCC1)C(c1cccc(Cl)c1)N1CCc2sccc2C1 (stereo not drawn) [化合物11, α,α-[(3-氯苯基)-(4,5,6,7-四氢噻吩并[3,2-c]吡啶-5-基)]-N′-(环己叉基)乙酰肼] | 43.1 | 31.2±12.1
NNC(=O)C(c1ccc(F)cc1)N1CCc2sccc2C1 (stereo not drawn) [化合物1, α,α-[(4-氟苯基)-(4,5,6,7-四氢噻吩并[3,2-c]吡啶-5-基)]乙酰肼] | 48.2 | 28.4±8.1
COc1ccc(C=NNC(=O)C(c2cccc(F)c2)N2CCc3sccc3C2)cc1 (stereo not drawn) [化合物6, α,α-[(3-氟苯基)-(4,5,6,7-四氢噻吩并[3,2-c]吡啶-5-基)]-N′-[(4-甲氧基苯基)甲叉基]乙酰肼] | 32.5 | 33.9±12.3
CC(C)=NNC(=O)C(c1ccc(Cl)cc1)N1CCc2sccc2C1 (stereo not drawn) [化合物2, α,α-[(4-氯苯基)-(4,5,6,7-四氢噻吩并[3,2-c]吡啶-5-基)]-N′-(二甲基甲叉基)乙酰肼] | 58.8 | 22.6±3.9
Cc1ccc(C=NNC(=O)C(c2ccc(Cl)cc2)N2CCc3sccc3C2)cc1 (stereo not drawn) [化合物4, α,α-[(4-氯苯基)-(4,5,6,7-四氢噻吩并[3,2-c]吡啶-5-基)]-N′-[(4-甲基苯基)甲叉基]乙酰肼] | 34.3 | 36.0±6.9
COC(=O)[C@H](c1ccccc1Cl)N1CCc2sccc2C1 [硫酸氯吡格雷, reference compound] |  | 9.1±3.5
O=C(NN=Cc1ccco1)C(c1cccc(F)c1)N1CCc2sccc2C1 (stereo not drawn) [化合物9, α,α-[(3-氟苯基)-(4,5,6,7-四氢噻吩并[3,2-c]吡啶-5-基)]-N′-[(呋喃-2-基)甲叉基]乙酰肼] | 28.6 | 41.0±13.4
O=C(NN=Cc1ccc(-c2ccc(Cl)cc2)o1)C(c1cccc(Cl)c1)N1CCc2sccc2C1 (stereo not drawn) [化合物8, α,α-[(3-氯苯基)-(4,5,6,7-四氢噻吩并[3,2-c]吡啶-5-基)]-N′-[[5-(4-氯苯)呋喃-2-基]甲叉基]乙酰肼] | 64.4 | 38.7±10.9
O=C(NN=C1CCCc2ccccc21)C(c1ccc(Cl)cc1)N1CCc2sccc2C1 (stereo not drawn) [化合物12, α,α-[(4-氯苯基)-(4,5,6,7-四氢噻吩并[3,2-c]吡啶-5-基)]-N′-(α-四氢萘叉基)乙酰肼] | 35.3 | 36.2±7.4
O=C(NN=Cc1ccccc1O)C(c1cccc(F)c1)N1CCc2sccc2C1 (stereo not drawn) [化合物5, α,α-[(3-氟苯基)-(4,5,6,7-四氢噻吩并[3,2-c]吡啶-5-基)]-N′-[(2-羟基苯基)甲叉基]乙酰肼] | 33.5 | 38.7±10.6
O=C(NN=Cc1ccccc1Cl)C(c1cccc(Cl)c1)N1CCc2sccc2C1 (stereo not drawn) [化合物3, α,α-[(3-氯苯基)-(4,5,6,7-四氢噻吩并[3,2-c]吡啶-5-基)]-N′-[(2-氯苯基)甲叉基]乙酰肼] | 18.2 | 44.8±11.1
